PubChem BioAssay (NCI)
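Step 1: Grow cells in 96-well plates. Step 2: Expose to compound for 48 hours at 5 concentrations. Step 3: Interpolate endpoints linearly; if unreached, use highest concentration. The concentration for 50% growth inhibition is given as GI50. TGI marks complete inhibition of growth.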

Experiments:
Assay in all cases: NCI tumour cell line growth inhibition, 48 h
[1] = system: TK-10 renal
[2] = system: UACC-62 melanoma
[3] = system: SNB-19 CNS
[4] = system: MDA-MB-435
[5] = system: ACHN renal
[6] = system: 786-0 renal
[7] = system: HCC-2998 colon
[8] = system: NCI-H226 lung
[9] = system: NCI-H460 lung
[10] = system: HOP-62 NSCLC

| Structure (SMILES) | TGI [1] [µM] | TGI [2] [µM] | TGI [3] [µM] | TGI [4] [µM] | TGI [5] [µM] | TGI [6] [µM] | TGI [7] [µM] | TGI [8] [µM] | TGI [9] [µM] | TGI [10] [µM] | GI50 [1] [µM] | GI50 [2] [µM] | GI50 [3] [µM] | GI50 [4] [µM] | GI50 [5] [µM] | GI50 [7] [µM] | GI50 [8] [µM] | GI50 [9] [µM] | GI50 [10] [µM] |
| --- | --- | --- | --- | --- | --- | --- | --- | --- | --- | --- | --- | --- | --- | --- | --- | --- | --- | --- | --- |
| CC1(C)[C@@H]2CC[C@@]1(C)[C@H](O)[C@@H]2SCc1ccccc1 | 57.8 | 22.2 | 31.7 | 33.2 | 24 | 32.9 | 36.6 | 39.4 | 39.9 | 33 | – | – | – | – | – | – | – | – | – |
| Cc1ccc(/C=C2\CN(C)CC3C2=NC(=S)NC3c2ccc(C)cc2)cc1 (configuration not stated) | > 100 | > 100 | > 100 | 45.1 | > 100 | > 100 | 33.4 | > 100 | > 100 | > 100 | – | – | – | – | – | – | – | – | – |
| COc1ccc(C(=O)c2ccc(-n3cc(/C=C/[N+](=O)[O-])c4ccccc43)cc2)cc1 | 16.8 | 28.5 | > 72.4 | 49.3 | 52 | 11.2 | 48.9 | > 92.9 | > 66.1 | 35.4 | – | – | – | – | – | – | – | – | – |
| Cn1c(=O)sc2cc(C(=S)N3CCOCC3)ccc21 | > 100 | > 100 | > 100 | > 100 | > 100 | > 100 | > 100 | > 100 | > 100 | > 100 | – | – | – | – | – | – | – | – | – |
| CCCCCCCCCCCCCCCCOCC(Cl)COP(=O)(O)OP(=O)(O)OCC1OC(n2cnc3c(N)ncnc32)C(O)C1O (configuration not stated) | > 100 | > 100 | > 100 | > 100 | > 100 | > 100 | > 100 | > 100 | > 100 | > 100 | – | – | – | – | – | – | – | – | – |
| CCCCCCOP(=O)(OCCCCCC)OC(C(=O)OC)C(F)(F)F (configuration not stated) | > 100 | > 100 | > 100 | > 100 | > 100 | > 100 | > 100 | > 100 | – | > 100 | – | – | – | – | – | – | – | – | – |
| Oc1[nH]c2ccccc2c1/C=c1/cc2c(c(-c3ccc(C(F)(F)F)cc3)n1)=Nc1ccccc1-2 | 22.9 | 21.9 | > 100 | 10 | 11.5 | – | 24.4 | > 100 | 10.5 | 27.3 | 5.54 | 6.32 | 6.81 | 0.403 | 2.72 | 9.32 | 36.4 | 2.56 | 12.3 |
| NC(=S)N/N=C\CC(O)(C(F)(F)F)C(F)(F)F | > 10 | > 10 | > 10 | > 10 | > 10 | > 10 | > 10 | > 10 | > 10 | > 10 | – | – | – | – | – | – | – | – | – |
| CC(C)(C)OC(=O)N1CCc2c(n(C/C=C/c3ccccc3)[nH]c2=O)C1 | > 100 | > 100 | > 100 | > 100 | > 100 | > 100 | > 100 | > 100 | > 100 | > 100 | – | – | – | – | – | – | – | – | – |
| COC(=O)C(NC(=O)CSc1nnc(COc2ccc(Cl)cc2)n1-c1ccccc1)C(C)C (configuration not stated) | 36.2 | 36.1 | 73 | 43 | > 100 | 38.8 | 38.7 | 33 | 99.3 | 35.2 | – | – | – | – | – | – | – | – | – |
| CC(C)(C)c1c(C(C)(C)C)c(=O)c1=O | > 100 | > 100 | > 100 | > 100 | > 100 | > 100 | > 100 | > 100 | > 100 | > 100 | – | – | – | – | – | – | – | – | – |
| CC(=O)CC1(C)OC(N)=C(C#N)C1(C#N)C#N (configuration not stated) | > 100 | > 100 | > 100 | > 100 | > 100 | > 100 | > 100 | > 100 | – | > 100 | – | – | – | – | – | – | – | – | – |
| C=C1CC(Cn2cc(Br)c(=O)[nH]c2=O)(c2ccc(-c3ccccc3)cc2)OC1=O (configuration not stated) | 0.842 | 2.45 | 26.8 | 2.36 | 3.24 | 2.29 | 3.21 | 4.31 | 19.7 | 19.3 | – | – | – | – | – | – | – | – | – |
| Cc1ccc2c(c1)CC1(C2=O)[C@H](c2ccccc2)C2C(=O)c3ccc(C)cc3C2[C@H]1c1ccccc1 (some centres not stated) | > 100 | > 100 | > 100 | > 100 | > 100 | > 100 | > 100 | > 100 | > 100 | > 100 | – | – | – | – | – | – | – | – | – |
| CC(C)C1CC(CO)(CNc2cc(Cl)nc(N)n2)C1 (configuration not stated) | > 100 | > 100 | > 100 | > 100 | > 100 | > 100 | > 100 | > 100 | > 100 | > 100 | – | – | – | – | – | – | – | – | – |
| C=CCOC(=O)CCCCCCCCCCCCCCCOC(=O)C1=C(CCC[C@@H](C)O[Si](C)(C)C(C)(C)C)NC(=O)N2[C@H](CC3(CC/C=C\[C@H](CC)O[Si](C(C)C)(C(C)C)C(C)C)OCCO3)CC[C@H]12 | > 100 | > 100 | > 100 | > 100 | > 100 | > 100 | > 100 | > 100 | > 100 | > 100 | – | – | – | – | – | – | – | – | – |
| O=C1CSC2(CC(/C=C/c3ccccc3Br)=NN2c2cccc(S(=O)(=O)O)c2)N1c1nc2ccccc2s1 (configuration not stated) | > 100 | > 100 | > 100 | > 100 | > 100 | > 100 | > 100 | > 100 | > 100 | – | – | – | – | – | – | – | – | – | – |
| NS(=O)(=O)c1cc(S(N)(=O)=O)c(NC(=O)N(c2ccccc2)c2ccccc2)c(Cl)c1Cl | > 100 | 93.2 | > 100 | 67.2 | 76.5 | > 100 | 35.3 | 53.7 | > 100 | – | – | – | – | – | – | – | – | – | – |
| CCCNC(=O)CCC(C)[C@H]1CCC2C3C(C[C@H](OC(C)=O)[C@@]21C)[C@@]1(C)CCC2(C[C@H]1C[C@H]3OC(C)=O)OOC1(CCCCC1)OO2 (some centres not stated) | 4.32 | > 100 | > 100 | 9.92 | 2.62 | 6.53 | > 43.3 | > 57.2 | 6.83 | 1.34 | – | – | – | – | – | – | – | – | – |
| NC(=O)C1=CC2C3C=CC2(O)C(=O)OC3O1 (configuration not stated) | 16.7 | 7.74 | 60.9 | 16.5 | 15.7 | 16 | 26.7 | 5.83 | 43.2 | 29.9 | – | – | – | – | – | – | – | – | – |
| COc1cccc(CN(C(=O)/C=C\Sc2ccccc2)C(C)(C)C)c1 | > 100 | > 100 | > 100 | > 100 | > 100 | > 100 | > 100 | > 100 | – | > 100 | – | – | – | – | – | – | – | – | – |
| O=C(CSc1nc2ccc(I)cc2c(=O)n1Cc1ccccc1)NN1C(=O)CCC1=O | > 100 | > 100 | > 100 | > 100 | 34.6 | > 100 | > 100 | 84.6 | > 100 | > 100 | – | – | – | – | – | – | – | – | – |
| COc1cc(-n2cc(-c3cc(O)c(C/C=C(\C)CCC=C(C)C)c(O)c3)nn2)cc2c1O[C@]1(C)CC[C@@H](O)C(C)(C)[C@H]1C2 | > 100 | 2.98 | 40.3 | 27.6 | 26.6 | – | 19 | 68.4 | 14.9 | 12.7 | 7.97 | 0.23 | 1.89 | 1.22 | 1.79 | 2.45 | 5.98 | 1.13 | 0.564 |
| CC/C(Cl)=N\OC(=O)Nc1ccc(F)cc1F | 24.3 | 32.3 | > 56.6 | 34.2 | 3.78 | 8.77 | 36.7 | 34.2 | 85.8 | 46.1 | – | – | – | – | – | – | – | – | – |
| O=CNNC(=O)Nc1ccc(Cl)cc1 | > 100 | > 100 | > 100 | > 100 | > 100 | > 100 | > 100 | > 100 | – | > 100 | – | – | – | – | – | – | – | – | – |
| CCOC(=O)CCCn1cc(C(=O)OC)nn1 | > 100 | > 100 | > 100 | > 100 | > 100 | > 100 | > 100 | > 100 | > 100 | > 100 | – | – | – | – | – | – | – | – | – |
| COc1ccc(/C=C2\CCC(CNc3ccc(Br)cc3)C2=O)cc1 (configuration not stated) | > 100 | > 100 | > 100 | > 100 | > 100 | > 100 | > 100 | > 100 | > 100 | > 100 | – | – | – | – | – | – | – | – | – |
| CC1=C2NCN(C)N=C2C(C#N)(C#N)C1(C#N)C#N | 31 | 46.8 | > 95.2 | 46.6 | 33 | 37.7 | 44.4 | > 100 | – | > 100 | – | – | – | – | – | – | – | – | – |
| Cc1ccc(S(=O)(=O)N/N=C2\C3CC4CC(C3)C2C4)cc1 (configuration not stated) | > 100 | > 100 | > 100 | > 100 | – | > 100 | > 100 | > 100 | > 100 | > 100 | – | – | – | – | – | – | – | – | – |
| CCOC(=O)/C(C#N)=C/N(CC)/N=C/c1ccccc1 | > 100 | > 100 | > 100 | > 100 | > 100 | > 100 | > 100 | > 100 | > 100 | – | – | – | – | – | – | – | – | – | – |
